How the values were obtained:
Type in all cases: functional
NCI-H520 [1] = assay: Cytotoxicity against human NCI-H520 cells assessed as cell survival at 100 uM relative to control; details: read-out: Activity
PC-3 [2] = assay: Cytotoxicity against human PC3 cells assessed as cell survival at 50 uM relative to control; details: read-out: Activity
NCI-H520 [3] = assay: Cytotoxicity against human NCI-H520 cells assessed as cell survival at 10 uM relative to control; details: read-out: Activity
PC-3 [4] = assay: Cytotoxicity against human PC3 cells assessed as cell survival at 100 uM relative to control; details: read-out: Activity
NCI-H520 [5] = assay: Cytotoxicity against human NCI-H520 cells assessed as cell survival at 50 uM relative to control; details: read-out: Activity
PC-3 [6] = assay: Cytotoxicity against human PC3 cells assessed as cell survival at 10 uM relative to control; details: read-out: Activity
PC-3 [7] = assay: Growth inhibition of human PC3 cells
NCI-H520 [8] = assay: Growth inhibition of human NCI-H520 cells

GI50 (PC-3 [7]) [µM]	GI50 (NCI-H520 [8]) [µM]	Structure (SMILES)	viability at 100 µM (NCI-H520 [1]) [%]	viability at 50 µM (PC-3 [2]) [%]	viability at 10 µM (NCI-H520 [3]) [%]	viability at 100 µM (PC-3 [4]) [%]	viability at 50 µM (NCI-H520 [5]) [%]	viability at 10 µM (PC-3 [6]) [%]
–	–	COc1cc([C@@H]2c3[nH]c4ccccc4c3C[C@H]3C(=O)N4[C@H](c5cc(OC)c(OC)c(OC)c5)c5[nH]c6ccccc6c5C[C@H]4C(=O)N23)cc(OC)c1OC	86.7	80.5	90.3	65	90.8	93
–	–	COc1cc([C@@H]2c3[nH]c4ccccc4c3C[C@H]3C(=O)N4[C@H](c5cc(OC)c(OCc6ccccc6)c(OC)c5)c5[nH]c6ccccc6c5C[C@H]4C(=O)N23)cc(OC)c1OCc1ccccc1	81	68.8	88.1	54.5	81.3	98.2
12.5	13.5	COc1cc([C@@H]2c3cc4c(cc3[C@@H](O[C@@H]3O[C@@H]5CO[C@@H](C)O[C@H]5[C@H](O)[C@H]3O)[C@H]3COC(=O)[C@H]23)OCO4)cc(OC)c1O [ETOPOSIDE]	21.3	41.2	78.6	30.8	35.2	73.8
–	–	COc1cc([C@H]2c3[nH]c4ccccc4c3C[C@@H]3C(=O)N4[C@@H](c5cc(OC)c(OCc6ccccc6)c(OC)c5)c5[nH]c6ccccc6c5C[C@@H]4C(=O)N23)cc(OC)c1OCc1ccccc1	84.5	92.7	> 100	65.1	> 100	> 100
21.9	21.5	COc1cc([C@@H]2c3[nH]c4ccccc4c3C[C@H]3C(=O)N4[C@H](c5cc(OC)c(O)c(OC)c5)c5[nH]c6ccccc6c5C[C@H]4C(=O)N23)cc(OC)c1O	5.8	3.3	67.3	1.6	16.5	80.7
55.3	61.5	COc1cc([C@H]2c3[nH]c4ccccc4c3C[C@@H]3C(=O)N4[C@@H](c5cc(OC)c(O)c(OC)c5)c5[nH]c6ccccc6c5C[C@@H]4C(=O)N23)cc(OC)c1O	26.8	43.6	88.7	15.7	53.2	> 100
–	–	COc1cc([C@H]2c3[nH]c4ccccc4c3C[C@@H]3C(=O)N4[C@@H](c5cc(OC)c(OC)c(OC)c5)c5[nH]c6ccccc6c5C[C@@H]4C(=O)N23)cc(OC)c1OC	98.9	> 100	99.8	77.4	98.9	> 100

Structure (SMILES)	GI50 (PC-3 [7]) [µM]	GI50 (NCI-H520 [8]) [µM]	viability at 100 µM (NCI-H520 [1]) [%]	viability at 50 µM (PC-3 [2]) [%]	viability at 10 µM (NCI-H520 [3]) [%]	viability at 100 µM (PC-3 [4]) [%]	viability at 50 µM (NCI-H520 [5]) [%]	viability at 10 µM (PC-3 [6]) [%]
CC(C)=CCc1[nH]c2ccccc2c1C[C@@H]1NC(=O)[C@H]2CCCN2C1=O	12.3	–	–	–	–	–	–	–

Source: ChEMBL document CHEMBL1145580, “Synthesis of diketopiperazine-based carboline homodimers and in vitro growth inhibition of human carcinomas” (2008)
